We go through two compounds from PMC6142817, “New Urea Derivatives Are Effective Anti-senescence Compounds Acting Most Likely via a Cytokinin-Independent Mechanism” (Frontiers in Plant Science, 2018).

Like-named read-outs stand apart in the source and are kept apart here.

In test [1] the test system is excised wheat leaves (chlorophyll degradation in the dark). Kind of test: Wheat leaf senescence assay (WLSA). It is filed as cell-based, Triticum aestivum cv. Hereward. The protocol: (§1) Tobacco callus, Amaranthus and Wheat leaf senescence assay (WLSA) were performed as described by Holub et al. ([1998]) including the number of repetitions in each assay. An exception to the published protocols was that the tobacco callus assay was performed in 6-well microtiter plates (with each well containing 3 ml of Murashige Skoog medium into which 0.1 g of callus was added). Each compound was tested at least twice in each assay and in a wider concentration range to obtain concentration-dependent activity curves. IC50 means compound concentration at which chlorophyll degradation is inhibited by 50% and EC50 means half the maximal effective concentration.
(§2) Amaranthus assay evaluates the induction of betacyanin synthesis in Amaranthus (Amaranthus caudatus var. atropurpurea) cotyledons, which is induced by cytokinins (Bamberger and Mayer, [1960]). The WLSA evaluates the ability of compounds to retard chlorophyll degradation in excised wheat leaves that are kept in the dark. The wheat leaf segments (Triticum aestivum cv. Hereward) were used in all other experiments requiring wheat. Arabidopsis (Arabidopsis thaliana) leaf senescence assay was performed with detached leaves from 30-day-old plants, which were grown in soil in phytotron under standard conditions (Rivero et al., [2014]). Four leaves of a combined weight of 60 mg were placed in a six-well plate and stored in the dark for 12 days at 22°C. The leaves (except the fresh control leaves) floated on water solutions of tested compounds. Fresh control leaves were leaves detached from a plant and immediately used for chlorophyll determination. The duration of the senescence assay of Arabidopsis leaves was prolonged to highlight the difference in chlorophyll content between a negative control and treatments. Arabidopsis leaves were losing chlorophyll more slowly than wheat leaves. Chlorophyll extraction and spectrophotometric determination of its content was done according to Holub et al. ([1998]).

The test system is the same in test [2]. As to conditions: read-out: WLSA IC50; ref Gajdošová et al., [2011]; cited from earlier work.
The next test concerns the target T1, AHK3 (Arabidopsis thaliana, UniProt Q9C5U1).
T1 construct: expressed in transfected cells; host or cells: Escherichia coli strain KMI001, plasmid pSTV28-AHK3
T1 sequence (Q9C5U1 1-1036): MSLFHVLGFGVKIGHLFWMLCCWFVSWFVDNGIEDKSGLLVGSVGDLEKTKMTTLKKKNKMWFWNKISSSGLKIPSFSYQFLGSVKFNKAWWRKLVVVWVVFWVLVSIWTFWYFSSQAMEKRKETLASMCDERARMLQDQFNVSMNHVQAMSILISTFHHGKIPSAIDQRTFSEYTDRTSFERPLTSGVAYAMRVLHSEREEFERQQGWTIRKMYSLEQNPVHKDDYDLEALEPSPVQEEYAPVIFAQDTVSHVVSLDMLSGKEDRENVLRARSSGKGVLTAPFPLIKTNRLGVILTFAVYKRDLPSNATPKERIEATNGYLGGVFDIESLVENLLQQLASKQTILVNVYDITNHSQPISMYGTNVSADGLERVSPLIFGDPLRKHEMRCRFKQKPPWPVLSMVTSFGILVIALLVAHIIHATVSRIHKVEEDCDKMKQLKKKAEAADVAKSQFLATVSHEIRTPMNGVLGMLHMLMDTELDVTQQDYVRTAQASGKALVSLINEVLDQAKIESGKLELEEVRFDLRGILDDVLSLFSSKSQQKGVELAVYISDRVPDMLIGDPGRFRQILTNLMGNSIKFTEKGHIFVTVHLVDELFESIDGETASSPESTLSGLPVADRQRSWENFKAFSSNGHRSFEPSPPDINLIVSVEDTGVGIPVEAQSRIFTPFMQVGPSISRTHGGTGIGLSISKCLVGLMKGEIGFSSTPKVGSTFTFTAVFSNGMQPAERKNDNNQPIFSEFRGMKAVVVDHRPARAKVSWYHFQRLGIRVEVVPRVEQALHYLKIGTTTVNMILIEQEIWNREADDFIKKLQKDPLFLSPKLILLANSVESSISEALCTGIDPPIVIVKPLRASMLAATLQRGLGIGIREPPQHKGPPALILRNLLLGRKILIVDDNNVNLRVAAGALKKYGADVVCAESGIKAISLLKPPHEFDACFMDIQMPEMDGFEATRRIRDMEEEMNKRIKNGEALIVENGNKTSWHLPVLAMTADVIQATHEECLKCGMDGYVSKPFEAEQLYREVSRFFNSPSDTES
Kind of test: Cytokinin receptor activation assay in E. coli (AHK3). It is filed as cell-based. The source says: (§3) The activity of this enzyme is finally measured in the assay and corresponds to the ability of the tested compound to activate this cytokinin receptor. Both assays were done at least twice and the presented graphs are the most representative examples.

Test [3] deals with Amaranthus caudatus cotyledon-hypocotyl explants. Kind of test: Amaranthus bioassay (betacyanin synthesis). As to conditions: Amaranthus caudatus, read-out: Amaranthus bioassay (EC50, μM). It is filed as cell-based, Amaranthus caudatus var. atropurpurea. Here is the method:
as §1, §2

Test [4] relates to cytokinin-dependent tobacco callus. Put plainly: Tobacco callus bioassay. It is filed as cell-based. As to conditions: Nicotiana tabacum, read-out: Tobacco callus bioassay (EC50, μM). The protocol:
as §1

A further test relates to ARR5:GUS reporter gene. Kind of test: Arabidopsis ARR5:GUS reporter gene assay. As to conditions: Arabidopsis thaliana, read-out: ARR5:GUS activation EC50. Format: in vivo, Arabidopsis thaliana. Here is the method:
Transgenic Arabidopsis plants (Arabidopsis thaliana (L.) Heynh. accession Wassilewskija) harboring the GUS reporter gene (gene for β-glucuronidase) fused to 1.6 kb of the ARR5 (PARR5−GUS) gene promoter (D'Agostino et al., [2000]) were kindly provided by professor Thomas Schmülling. The assay was performed according to Romanov et al. ([2002]). β-Glucuronidase (GUS) activity was quantitatively determined by measuring fluorescence of 4-methylumbelliferyl (MU) on a Synergy H4 hybrid reader (Biotek, Winooski, VT) with excitation and emission wavelengths of 365 and 445 nm, respectively. GUS specific activity was determined as nmol MU × mg protein^−1 × h^−1. This was calculated by dividing the relative fluorescence units (obtained per hour) by protein content of the same sample. Protein extraction was done as described by Romanov et al. ([2002]) but its content was determined using a bicinchoninic acid reagent (Smith et al., [1985]). Finally we expressed the GUS activity in samples as a relative percentage, the activity of 1 μM BA being set as 100% activation. The concentration-dependent activity curves and EC50 values (for TDZ, tZ, BA, TD-iP, and TD-tZ) were constructed using Scion image program.
On the technique in general: In a reporter assay the amount or activity of a reporter protein is the signal.

Test [5] has as its target T2, CRE1/AHK4 (Arabidopsis thaliana, UniProt Q9C5U0). As to conditions: read-out: CRE1/AHK4 receptor activation EC50 (previous study); ref Nisler et al., [2010]; cited from earlier work.
Test [6] has as its target T2, CRE1/AHK4. Put plainly: Cytokinin receptor activation assay in E. coli (CRE1/AHK4). Format: cell-based. The arrangement: expressed in transfected cells; host or cells: Escherichia coli strain KMI001, plasmid pIN-IIIAHK4.
Excerpt: as §3

T2 sequence (Q9C5U0 whole entry): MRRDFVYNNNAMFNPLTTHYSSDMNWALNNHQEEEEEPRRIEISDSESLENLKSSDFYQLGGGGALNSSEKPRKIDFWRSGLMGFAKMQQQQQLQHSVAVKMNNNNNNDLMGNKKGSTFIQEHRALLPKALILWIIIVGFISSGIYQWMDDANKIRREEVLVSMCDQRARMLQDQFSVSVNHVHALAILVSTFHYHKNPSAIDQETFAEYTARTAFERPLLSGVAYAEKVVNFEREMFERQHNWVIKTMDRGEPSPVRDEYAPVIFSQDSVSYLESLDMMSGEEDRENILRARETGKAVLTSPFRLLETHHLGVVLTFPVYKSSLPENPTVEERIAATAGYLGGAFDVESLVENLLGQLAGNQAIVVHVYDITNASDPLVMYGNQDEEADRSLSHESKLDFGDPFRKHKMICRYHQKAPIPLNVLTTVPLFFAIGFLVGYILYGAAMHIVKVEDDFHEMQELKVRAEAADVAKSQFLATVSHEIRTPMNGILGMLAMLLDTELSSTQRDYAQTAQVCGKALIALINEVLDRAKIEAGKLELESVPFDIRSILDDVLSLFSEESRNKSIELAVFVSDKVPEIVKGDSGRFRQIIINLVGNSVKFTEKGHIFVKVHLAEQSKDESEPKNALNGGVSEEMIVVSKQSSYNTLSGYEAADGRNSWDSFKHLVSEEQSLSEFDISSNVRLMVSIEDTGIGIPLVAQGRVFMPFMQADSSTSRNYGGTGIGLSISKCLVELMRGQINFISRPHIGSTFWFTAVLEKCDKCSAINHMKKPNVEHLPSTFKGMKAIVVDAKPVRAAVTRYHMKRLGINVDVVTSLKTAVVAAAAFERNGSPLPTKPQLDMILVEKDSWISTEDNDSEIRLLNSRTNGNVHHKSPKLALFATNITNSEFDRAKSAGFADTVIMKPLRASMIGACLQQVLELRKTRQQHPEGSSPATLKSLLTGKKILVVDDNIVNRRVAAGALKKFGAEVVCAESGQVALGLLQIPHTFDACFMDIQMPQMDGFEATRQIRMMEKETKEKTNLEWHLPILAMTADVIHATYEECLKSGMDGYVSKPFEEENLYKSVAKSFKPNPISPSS

With `C/C(=C/CNc1ncnc2nc[nH]c12)CO` [cis-zeatin, reference compound], in test [1], the “IC50 in WLSA, fold higher than IC50 of ASES” value was 300 fold and the “IC50 in WLSA, fold higher than IC50 of tZ” value came out at 10 fold. Further, the IC50 (commonly the midpoint of a concentration-inhibition curve) in test [2] was about 300 µM.

With `C/C(=C\CNc1ncnc2[nH]cnc12)CO` [tZ, trans-zeatin, reference compound], the EC50 at AHK3 is 0.066 µM; in test [3], 0.9 µM; in test [4], 0.012 µM; in the test with ARR5:GUS reporter gene it was 0.009 µM; on CRE1/AHK4 [5] it was 0.2 µM; on CRE1/AHK4 [6], 0.35 µM. Further, the 50% inhibitory concentration (IC50) in test [1] (Triticum aestivum, 120 h, read-out: Senescence bioassay (IC50, μM)) came to 30 µM.
